Reference: ChEMBL document CHEMBL3091424, “Anti-tubercular agents. Part 8: synthesis, antibacterial and antitubercular activity of 5-nitrofuran based 1,2,3-triazoles” (Bioorg Med Chem Lett, 2013)
Values after ≈ are worked out from the molar mass of the structure shown. Active and inactive are the calls of the source. No cut-off for these calls is given here.

Columns and labels:
[1] = system: Mycobacterium tuberculosis; assay: Antimicrobial activity against Mycobacterium tuberculosis H37Rv after 3 weeks by broth dilution method; type: functional; details: for MIC: 504 h
[2] = system: Staphylococcus aureus; assay: Antimicrobial activity against methicillin-resistant Staphylococcus aureus after 24 hrs by microdilution method; type: functional
[3] = system: Bacillus subtilis; assay: Bactericidal activity against Bacillus subtilis MTCC 121 after 24 hrs; type: functional; details: MTCC 121, 24 h
[4] = system: Staphylococcus aureus; assay: Antimicrobial activity against Staphylococcus aureus MTCC 96 after 24 hrs by well diffusion method; type: functional; details: MTCC 96, 24 h
[5] = system: Staphylococcus aureus; assay: Antimicrobial activity against Staphylococcus aureus MLS-16 MTCC 2940 after 24 hrs by well diffusion method; type: functional; details: MLS-16 MTCC 2940, 24 h
[6] = system: Staphylococcus aureus; assay: Bactericidal activity against Staphylococcus aureus MLS-16 MTCC 2940 after 24 hrs; type: functional; details: MLS-16 MTCC 2940, 24 h
[7] = system: Vero; assay: Cytotoxicity against african green monkey Vero cells; type: cell-based; details: Chlorocebus sabaeus
[8] = system: Pseudomonas aeruginosa; assay: Bactericidal activity against Pseudomonas aeruginosa MTCC 2453 after 24 hrs; type: functional; details: MTCC 2453, 24 h
[9] = system: Bacillus subtilis; assay: Antimicrobial activity against Bacillus subtilis MTCC 121 after 24 hrs by well diffusion method; type: functional; details: MTCC 121, 24 h
[10] = system: Staphylococcus aureus; assay: Antibiofilm activity against Staphylococcus aureus MTCC 96 after 24 hrs by crystal violet assay; type: functional, organism-based; details: for IC50: MTCC 96, 24 h
[11] = system: Raoultella planticola; assay: Antibiofilm activity against Klebsiella planticola MTCC 530 after 24 hrs by crystal violet assay; type: functional, organism-based; details: MTCC 530, 24 h
[12] = system: Pseudomonas aeruginosa; assay: Antimicrobial activity against Pseudomonas aeruginosa MTCC 2453 after 24 hrs by well diffusion method; type: functional; details: MTCC 2453, 24 h
[13] = system: Escherichia coli; assay: Antimicrobial activity against Escherichia coli MTCC 739 after 24 hrs by well diffusion method; type: functional; details: MTCC 739, 24 h
[14] = system: Candida albicans; assay: Antimicrobial activity against Candida albicans MTCC 3017 at 150 ug/ml after 24 hrs by well diffusion method; type: functional, organism-based
[15] = system: Micrococcus luteus; assay: Antimicrobial activity against Micrococcus luteus MTCC 2470 after 24 hrs by well diffusion method; type: functional; details: MTCC 2470, 24 h
[16] = system: Escherichia coli; assay: Bactericidal activity against Escherichia coli MTCC 739 after 24 hrs; type: functional; details: MTCC 739, 24 h
[17] = system: MRC5; assay: Cytotoxicity against human MRC5 cells; type: cell-based
[18] = system: Raoultella planticola; assay: Bactericidal activity against Klebsiella planticola MTCC 530 after 24 hrs; type: functional; details: MTCC 530, 24 h
[19] = system: Staphylococcus aureus; assay: Bactericidal activity against Staphylococcus aureus MTCC 96 after 24 hrs; type: functional; details: MTCC 96, 24 h
[20] = system: Raoultella planticola; assay: Antimicrobial activity against Klebsiella planticola MTCC 530 after 24 hrs by well diffusion method; type: functional; details: MTCC 530, 24 h
[21] = system: Micrococcus luteus; assay: Bactericidal activity against Micrococcus luteus MTCC 2470 after 24 hrs; type: functional; details: MTCC 2470, 24 h
[22] = system: Staphylococcus aureus; assay: Antibiofilm activity against Staphylococcus aureus MLS-16 MTCC 2940 after 24 hrs by crystal violet assay; type: functional, organism-based; details: MLS-16 MTCC 2940, 24 h
[23] = system: Enterococcus faecalis; assay: Antimicrobial activity against vancomycin -resistant Enterococcus faecalis after 24 hrs by microdilution method; type: functional

## CC(=O)NC[C@H]1CN(c2ccc(N3CCOCC3)c(F)c2)C(=O)O1 [LINEZOLID]
[1]
  MIC: 1 µg/mL (≈ 2.96 µM)
[2]
  MIC: 8 µg/mL (≈ 23.7 µM)

## COc1ccc(Cn2cc(CNC(=O)c3ccc([N+](=O)[O-])o3)nn2)cc1O
[3]
  MBC: 18.8 µg/mL (≈ 50.2 µM)
[1]
  Activity: inactive
[4]
  MIC: 37.5 µg/mL (≈ 100 µM)
[5]
  MIC: 9.37 µg/mL (≈ 25.1 µM)
[6]
  MBC: 18.8 µg/mL (≈ 50.2 µM)
[7]
  IC50: 174 µM
[8]
  MBC: > 150 µg/mL
[9]
  MIC: 9.37 µg/mL (≈ 25.1 µM)
[10]
  IC50: 10.3 µg/mL (≈ 27.6 µM)
[11]
  IC50: 11.3 µg/mL (≈ 30.3 µM)
[12]
  MIC: > 150 µg/mL
[13]
  MIC: 37.5 µg/mL (≈ 100 µM)
[14]
  Activity: inactive
[15]
  MIC: 9.37 µg/mL (≈ 25.1 µM)
[16]
  MBC: 75 µg/mL (≈ 201 µM)
[17]
  IC50: 189 µM
[18]
  MBC: 18.8 µg/mL (≈ 50.2 µM)
[19]
  MBC: 75 µg/mL (≈ 201 µM)
[20]
  MIC: 18.8 µg/mL (≈ 50.2 µM)
[21]
  MBC: 9.37 µg/mL (≈ 25.1 µM)
[22]
  IC50: 5.1 µg/mL (≈ 13.7 µM)

## COc1cc(Cn2cc(CNC(=O)c3ccc([N+](=O)[O-])o3)nn2)ccc1O
[3]
  MBC: 9.37 µg/mL (≈ 25.1 µM)
[1]
  MIC: 8 µg/mL (≈ 21.4 µM)
[4]
  MIC: 18.8 µg/mL (≈ 50.2 µM)
[5]
  MIC: 2.34 µg/mL (≈ 6.27 µM)
[6]
  MBC: 4.68 µg/mL (≈ 12.5 µM)
[7]
  IC50: 224 µM
[8]
  MBC: > 150 µg/mL
[9]
  MIC: 4.68 µg/mL (≈ 12.5 µM)
[10]
  IC50: 10.8 µg/mL (≈ 28.9 µM)
[11]
  IC50: 42.5 µg/mL (≈ 114 µM)
[2]
  MIC: 16 µg/mL (≈ 42.9 µM)
[12]
  MIC: > 150 µg/mL
[13]
  MIC: 37.5 µg/mL (≈ 100 µM)
[23]
  MIC: > 64 µg/mL
[14]
  Activity: inactive
[15]
  MIC: 1.17 µg/mL (≈ 3.13 µM)
[16]
  MBC: 75 µg/mL (≈ 201 µM)
[17]
  IC50: 182 µM
[18]
  MBC: 75 µg/mL (≈ 201 µM)
[19]
  MBC: 18.8 µg/mL (≈ 50.2 µM)
[20]
  MIC: 75 µg/mL (≈ 201 µM)
[21]
  MBC: 2.34 µg/mL (≈ 6.27 µM)
[22]
  IC50: 1.7 µg/mL (≈ 4.55 µM)

## O=C(O)c1cn(C2CC2)c2cc(N3CCNCC3)c(F)cc2c1=O [CIPROFLOXACIN]
[3]
  MBC: 1.17 µg/mL (≈ 3.53 µM)
[4]
  MIC: 0.58 µg/mL (≈ 1.75 µM)
[5]
  MIC: 0.58 µg/mL (≈ 1.75 µM)
[6]
  MBC: 1.17 µg/mL (≈ 3.53 µM)
[7]
  IC50: 192 µM
[8]
  MBC: 0.58 µg/mL (≈ 1.75 µM)
[9]
  MIC: 0.58 µg/mL (≈ 1.75 µM)
[12]
  MIC: 0.58 µg/mL (≈ 1.75 µM)
[13]
  MIC: 0.58 µg/mL (≈ 1.75 µM)
[15]
  MIC: 0.58 µg/mL (≈ 1.75 µM)
[16]
  MBC: 0.58 µg/mL (≈ 1.75 µM)
[17]
  IC50: 181 µM
[18]
  MBC: 1.17 µg/mL (≈ 3.53 µM)
[19]
  MBC: 0.58 µg/mL (≈ 1.75 µM)
[20]
  MIC: 0.58 µg/mL (≈ 1.75 µM)
[21]
  MBC: 0.58 µg/mL (≈ 1.75 µM)

## COc1cc(Cn2cc(CNC(=O)c3ccc([N+](=O)[O-])o3)nn2)ccc1F
[3]
  MBC: 4.68 µg/mL (≈ 12.5 µM)
[1]
  Activity: inactive
[4]
  MIC: > 150 µg/mL
[5]
  MIC: 9.37 µg/mL (≈ 25 µM)
[6]
  MBC: 9.37 µg/mL (≈ 25 µM)
[7]
  IC50: 225 µM
[8]
  MBC: > 150 µg/mL
[9]
  MIC: 2.34 µg/mL (≈ 6.23 µM)
[10]
  inhibition: inactive
[11]
  IC50: 22.7 µg/mL (≈ 60.5 µM)
[12]
  MIC: > 150 µg/mL
[13]
  MIC: > 150 µg/mL
[14]
  Activity: inactive
[15]
  MIC: 1.17 µg/mL (≈ 3.12 µM)
[16]
  MBC: > 150 µg/mL
[17]
  IC50: 155 µM
[18]
  MBC: 37.5 µg/mL (≈ 99.9 µM)
[19]
  MBC: > 150 µg/mL
[20]
  MIC: 37.5 µg/mL (≈ 99.9 µM)
[21]
  MBC: 1.17 µg/mL (≈ 3.12 µM)
[22]
  IC50: 2.7 µg/mL (≈ 7.19 µM)

## COc1ccc(Cn2cc(CNC(=O)c3ccc([N+](=O)[O-])o3)nn2)cc1
[3]
  MBC: 4.68 µg/mL (≈ 13.1 µM)
[1]
  Activity: inactive
[4]
  MIC: 37.5 µg/mL (≈ 105 µM)
[5]
  MIC: 9.37 µg/mL (≈ 26.2 µM)
[6]
  MBC: 9.37 µg/mL (≈ 26.2 µM)
[7]
  IC50: 274 µM
[8]
  MBC: > 150 µg/mL
[9]
  MIC: 2.34 µg/mL (≈ 6.55 µM)
[10]
  IC50: 12.6 µg/mL (≈ 35.3 µM)
[11]
  IC50: 24 µg/mL (≈ 67.2 µM)
[12]
  MIC: > 150 µg/mL
[13]
  MIC: 75 µg/mL (≈ 210 µM)
[14]
  Activity: inactive
[15]
  MIC: 2.34 µg/mL (≈ 6.55 µM)
[16]
  MBC: 75 µg/mL (≈ 210 µM)
[17]
  IC50: 146 µM
[18]
  MBC: 37.5 µg/mL (≈ 105 µM)
[19]
  MBC: 75 µg/mL (≈ 210 µM)
[20]
  MIC: 37.5 µg/mL (≈ 105 µM)
[21]
  MBC: 2.34 µg/mL (≈ 6.55 µM)
[22]
  IC50: 6.1 µg/mL (≈ 17.1 µM)

## COc1ccc(Cn2cc(CNC(=O)c3ccc([N+](=O)[O-])o3)nn2)cc1[N+](=O)[O-]
[3]
  MBC: 2.34 µg/mL (≈ 5.82 µM)
[1]
  MIC: 16 µg/mL (≈ 39.8 µM)
[4]
  MIC: > 150 µg/mL
[5]
  MIC: 4.68 µg/mL (≈ 11.6 µM)
[6]
  MBC: 4.68 µg/mL (≈ 11.6 µM)
[7]
  IC50: 176 µM
[8]
  MBC: > 150 µg/mL
[9]
  MIC: 2.34 µg/mL (≈ 5.82 µM)
[10]
  IC50: 91.2 µg/mL (≈ 227 µM)
[11]
  IC50: 6.1 µg/mL (≈ 15.2 µM)
[2]
  MIC: 8 µg/mL (≈ 19.9 µM)
[12]
  MIC: > 150 µg/mL
[13]
  MIC: 18.8 µg/mL (≈ 46.6 µM)
[23]
  MIC: > 64 µg/mL
[14]
  Activity: inactive
[15]
  MIC: 4.68 µg/mL (≈ 11.6 µM)
[16]
  MBC: 18.8 µg/mL (≈ 46.6 µM)
[17]
  IC50: 198 µM
[18]
  MBC: 18.8 µg/mL (≈ 46.6 µM)
[19]
  MBC: > 150 µg/mL
[20]
  MIC: 9.37 µg/mL (≈ 23.3 µM)
[21]
  MBC: 9.37 µg/mL (≈ 23.3 µM)
[22]
  IC50: 4.1 µg/mL (≈ 10.2 µM)
